Molecules are shown by their SMILES.

Assay [1] concerns the target T1, DOT1L (Homo sapiens, UniProt Q8TEK3). Briefly: DOT1L fluorescence polarization (FP) displacement assay. Format: binding. The following applies: FIG. 1. As to the method:
Example 13: Cellular Disruptor of Telomeric Silencing 1-Like (DOT1L) Fluorescence Polarization (FP) Displacement Assay
DOT1L FP displacement assays were conducted with inventive bifunctional compounds 2, 3, and 6, and pomalidomide and positive control EPZ5676 at different concentrations [M], measured in [M] per mP.
Target sequence in this assay (Q8TEK3 whole entry, species assumed): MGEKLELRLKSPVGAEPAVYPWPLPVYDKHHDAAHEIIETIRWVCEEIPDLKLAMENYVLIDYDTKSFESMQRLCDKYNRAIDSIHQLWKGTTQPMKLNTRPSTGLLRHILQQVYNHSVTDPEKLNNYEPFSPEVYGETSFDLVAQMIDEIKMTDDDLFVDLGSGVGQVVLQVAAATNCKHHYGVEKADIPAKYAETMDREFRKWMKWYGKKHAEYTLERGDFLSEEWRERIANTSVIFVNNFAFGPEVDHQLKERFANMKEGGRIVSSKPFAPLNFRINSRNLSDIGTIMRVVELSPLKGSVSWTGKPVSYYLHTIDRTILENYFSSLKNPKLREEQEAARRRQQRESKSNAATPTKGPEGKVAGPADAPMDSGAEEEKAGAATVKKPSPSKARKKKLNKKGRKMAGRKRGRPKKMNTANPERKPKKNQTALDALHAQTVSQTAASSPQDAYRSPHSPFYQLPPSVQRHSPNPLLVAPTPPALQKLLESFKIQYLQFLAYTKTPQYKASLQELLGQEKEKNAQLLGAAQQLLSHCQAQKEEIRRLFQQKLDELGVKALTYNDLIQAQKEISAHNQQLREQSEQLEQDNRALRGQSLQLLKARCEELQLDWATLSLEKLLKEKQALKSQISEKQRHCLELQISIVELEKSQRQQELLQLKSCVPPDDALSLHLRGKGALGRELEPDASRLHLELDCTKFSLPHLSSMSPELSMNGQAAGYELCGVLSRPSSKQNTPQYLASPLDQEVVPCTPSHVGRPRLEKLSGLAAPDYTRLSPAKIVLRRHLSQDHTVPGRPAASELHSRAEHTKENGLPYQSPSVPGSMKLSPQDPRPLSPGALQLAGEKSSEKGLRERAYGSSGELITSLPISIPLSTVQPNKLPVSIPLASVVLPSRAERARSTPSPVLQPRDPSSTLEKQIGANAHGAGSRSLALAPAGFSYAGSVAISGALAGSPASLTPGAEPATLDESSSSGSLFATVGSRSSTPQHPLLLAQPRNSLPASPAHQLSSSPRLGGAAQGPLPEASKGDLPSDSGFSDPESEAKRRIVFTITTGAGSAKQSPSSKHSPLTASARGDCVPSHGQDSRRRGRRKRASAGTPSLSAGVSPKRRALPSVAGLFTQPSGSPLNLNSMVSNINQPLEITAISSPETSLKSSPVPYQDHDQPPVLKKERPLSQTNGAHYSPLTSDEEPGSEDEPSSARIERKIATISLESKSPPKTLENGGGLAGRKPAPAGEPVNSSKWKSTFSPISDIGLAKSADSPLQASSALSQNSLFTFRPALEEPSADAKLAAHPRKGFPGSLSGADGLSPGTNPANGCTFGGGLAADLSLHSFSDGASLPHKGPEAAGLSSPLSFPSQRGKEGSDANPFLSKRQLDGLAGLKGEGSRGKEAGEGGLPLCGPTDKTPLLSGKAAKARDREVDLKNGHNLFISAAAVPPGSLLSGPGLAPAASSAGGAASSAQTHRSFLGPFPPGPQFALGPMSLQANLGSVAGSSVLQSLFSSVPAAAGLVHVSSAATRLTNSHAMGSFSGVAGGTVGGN
(In general: In fluorescence polarisation assays a small probe gives low polarisation when free and higher when bound to something large.)

In a further assay the target is DOT1L:CRBN (Homo sapiens, UniProt Q8TEK3+Q96SW2). The experiment in a line: DOT1L:CRBN-DDB1 dimerization assay (AlphaScreen). Format: binding. Conditions: FIG. 2, GST-CRBN-DDB1 and 6xHIS DOT1L 125 nM. As to the method:
Example 14: DOT1L:Cereblon (CRBN)-DNA Damage-Binding Protein 1 (DDB1)/DOT1L Dimerization Assay
GST-CRBN-DDB1 and DOT1L (6×HIS-tagged) were both diluted to 125 nM in assay buffer (50 mM 2-[4-(2-Hydroxyethyl)piperazin-1-yl]ethane-1-sulfonic acid (HEPES) pH 7.4, 150 mM NaCl, and 0.01% Tween®, 2, 0.1% bovine serum albumin (BSA)), and 20 μL of protein mixture was added to each well of a 384-well AlphaPlate™ (PerkinElmer®). Compounds were then added at 100 nL per well from DMSO stock plates using a Janus®, Workstation (PerkinElmer®). Following a 1-hour incubation at room temperature, 20 μL Nickel Chelate AlphaLISA® Acceptor and Glutathione AlphaLISA® Donor beads (PerkinElmer®) diluted to 20 ng/μl in assay buffer was added to each well. After a 1-hour incubation at room temperature, luminescence was measured on the Envision® 2104 plate reader (PerkinElmer®). Data were analyzed and plotted using GraphPad PRISM v6 and dimerization amplitude, mean, and s.d. values were determined using the ‘Gaussian’ analysis module.
DOT1L:CRBN dimerization by inventive bifunctional compounds 2, 3, and 6, and pomalidomide and EPZ5676 was assessed by AlphaScreen® assay.

The test system of a further assay is EOL1 cells. Briefly: Cell proliferation assay in EOL1 cells (trypan blue cell counts). Format: cell-based, human. The following applies: FIG. 3, 4B, 6B, 7, 8, 9B. The method, then:
Example 15: Cell Proliferation Assays in EOL1 (Human Eosinophilic Leukaemia) Cells with Inventive Bifunctional Compounds
EOL1 cells were seeded into a 6-well plate at a density of 0.25×10^6 cells/well and then treated compounds with indicated concentration and incubated for the indicated times. After staining with trypan blue, cell counts were performed using a Countess® II FL Automated Cell Counter (ThermoFisher Scientific).

Another assay concerns MV411 cells. The experiment in a line: Cell proliferation assay in MV411 cells (trypan blue cell counts). The format is cell-based, human. The following applies: FIG. 5B, 10B. The method, then: Example 16: Cell Proliferation Assays in MV411 (Human Myelomonocytic Leukemia) Cells with Inventive Bifunctional Compounds
MV411 cells were seeded into a 6-well plate at a density of 0.25×10^6 cells/well and then treated compounds with indicated concentration and incubated for the indicated times. After staining with trypan blue, cell counts were performed using a Countess® II FL Automated Cell Counter (ThermoFisher Scientific).

The target of assay [2] is T1, DOT1L. The experiment in a line: Western blot of DOT1L degradation in MV411 cells. Details: endogenous in cells. Format: cell-based. The following applies: FIG. 5A, 10A. A general note: Immunoblotting shows a protein as a band on a membrane.
Target sequence in this assay (Q8TEK3 whole entry): as the sequence (Q8TEK3 whole entry, species assumed) above
Assay [3] addresses T1, DOT1L. Briefly: Western blot of DOT1L degradation in EOL1 cells. The format is cell-based. Details: degraded DOT1L in EOL1 cells; endogenous in cells; host or cells: EOL1. Conditions: FIG. 4A, 6A, 9A.
Target sequence in this assay (Q8TEK3 whole entry): as the sequence (Q8TEK3 whole entry, species assumed) above
For another assay, the system named is SEMK2 cells. The experiment in a line: Cell proliferation assay in SEMK2 cells (trypan blue cell counts). The format is cell-based. The following applies: FIG. 11. The method, then:
Example 17: Cell Proliferation Assays in SEMK2 (B Acute Lymphoblastic Leukemia) Cells with Inventive Bifunctional Compounds
SEMK2 cells were seeded into a 6-well plate at a density of 0.25×10^6 cells/well and then treated compounds with indicated concentration and incubated for the indicated times. After staining with trypan blue, cell counts were performed using a Countess® II FL Automated Cell Counter (ThermoFisher Scientific).

Another assay concerns THP1 cells. The experiment in a line: Cell proliferation assay in THP1 cells (trypan blue cell counts). Format: cell-based. Conditions: FIG. 12. As to the method:
Example 18: Cell Proliferation Assays in THP1 (Acute Monocytic Leukemia) Cells with Inventive Bifunctional Compounds
THP1 cells were seeded into a 6-well plate at a density of 0.25×10^6 cells/well and then treated compounds with indicated concentration and incubated for the indicated times. After staining with trypan blue, cell counts were performed using a Countess® II FL Automated Cell Counter (ThermoFisher Scientific).

Sequence of DOT1L:CRBN (Q8TEK3 whole entry, species assumed): as above
Sequence of DOT1L:CRBN (Q96SW2 whole entry, species assumed): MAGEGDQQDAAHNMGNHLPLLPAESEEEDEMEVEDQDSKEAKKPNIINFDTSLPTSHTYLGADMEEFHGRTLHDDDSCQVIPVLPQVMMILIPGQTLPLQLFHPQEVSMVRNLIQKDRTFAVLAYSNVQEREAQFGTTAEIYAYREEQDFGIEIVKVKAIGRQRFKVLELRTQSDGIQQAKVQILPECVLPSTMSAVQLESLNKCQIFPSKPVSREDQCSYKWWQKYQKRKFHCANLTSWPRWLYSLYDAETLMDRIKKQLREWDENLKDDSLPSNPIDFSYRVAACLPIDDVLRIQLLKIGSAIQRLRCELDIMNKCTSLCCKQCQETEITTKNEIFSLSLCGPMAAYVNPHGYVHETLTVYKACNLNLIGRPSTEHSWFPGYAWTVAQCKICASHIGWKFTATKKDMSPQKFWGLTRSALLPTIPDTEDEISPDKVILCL
Sequence of DOT1L:CRBN (Q16531 whole entry partner, species assumed): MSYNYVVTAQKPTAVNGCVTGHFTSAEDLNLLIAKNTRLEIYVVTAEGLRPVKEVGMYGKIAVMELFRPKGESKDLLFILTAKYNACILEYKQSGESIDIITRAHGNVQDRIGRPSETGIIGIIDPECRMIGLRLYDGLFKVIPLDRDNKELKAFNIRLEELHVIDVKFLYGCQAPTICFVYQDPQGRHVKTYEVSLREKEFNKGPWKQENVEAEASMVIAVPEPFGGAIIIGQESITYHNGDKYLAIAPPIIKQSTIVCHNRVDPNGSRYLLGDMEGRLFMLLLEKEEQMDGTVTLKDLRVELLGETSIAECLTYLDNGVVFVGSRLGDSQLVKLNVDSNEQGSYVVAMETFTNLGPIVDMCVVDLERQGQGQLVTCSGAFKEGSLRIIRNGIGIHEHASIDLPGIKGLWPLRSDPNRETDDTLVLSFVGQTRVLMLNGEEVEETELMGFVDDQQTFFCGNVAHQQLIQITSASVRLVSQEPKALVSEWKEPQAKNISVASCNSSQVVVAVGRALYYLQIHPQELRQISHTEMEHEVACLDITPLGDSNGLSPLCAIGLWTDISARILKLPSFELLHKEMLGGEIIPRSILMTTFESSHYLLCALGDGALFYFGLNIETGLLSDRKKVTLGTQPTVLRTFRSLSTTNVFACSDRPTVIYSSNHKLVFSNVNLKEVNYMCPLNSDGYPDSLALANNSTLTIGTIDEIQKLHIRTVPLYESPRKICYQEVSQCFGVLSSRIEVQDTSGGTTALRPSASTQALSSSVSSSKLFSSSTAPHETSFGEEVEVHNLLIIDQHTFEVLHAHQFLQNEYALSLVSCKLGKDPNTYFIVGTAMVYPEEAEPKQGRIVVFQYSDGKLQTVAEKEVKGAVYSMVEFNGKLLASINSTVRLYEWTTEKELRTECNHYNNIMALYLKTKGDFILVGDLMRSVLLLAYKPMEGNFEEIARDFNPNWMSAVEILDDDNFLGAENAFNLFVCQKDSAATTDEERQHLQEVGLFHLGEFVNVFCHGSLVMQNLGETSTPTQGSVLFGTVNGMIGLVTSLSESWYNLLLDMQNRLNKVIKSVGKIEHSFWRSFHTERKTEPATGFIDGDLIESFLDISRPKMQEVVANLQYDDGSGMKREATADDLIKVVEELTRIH

`CC(C)N(C[C@H]1O[C@@H](n2cnc3c(NCCCCNC(=O)CCCCCCCCCCCCCCCNc4cccc5c4C(=O)N(C4CCC(=O)NC4=O)C5=O)ncnc32)[C@H](O)[C@@H]1O)C1CC(CCc2nc3cc(C(C)(C)C)ccc3[nH]2)C1` (stereo partly drawn) [Compound 2, N-(4-((9-((2R,3R,4S,5R)-5-((3-(2-(5-(tert-butyl)-1H-benzo[d]imidazol-2-yl)ethyl)cyclobutyl)(isopropyl)amino)methyl)-3,4-dihydroxytetrahydrofuran-2-yl)-9H-purin-6-yl)amino)butyl)-16-((2-(2,6-dioxopiperidin-3-yl)-1,3-dioxoisoindolin-4-ylamino)hexadecanamide]: at DOT1L [1], the “DOT1L binding via displacement of FITC-probe in FP assay” value (shortened to “DOT1L binding via displacement”) is given as “bound DOT1L via displacement of fluorescein isothiocyanate (FITC)-probe in FP assay”. For the same compound, the “formation of ternary complexes between DOT1L and CRBN” value (“formation” below) on DOT1L:CRBN is “induced the formation of ternary complexes between the DOT1L and CRBN”. Moreover, the EOL1 cell viability result in the assay with EOL1 cells was “reduced EOL1 cell viability in a dose dependent manner and at early time points”. Also, the MV411 cell viability entry with MV411 cells was “reduced MV411 cell viability in a dose dependent manner and at early time points”. Further, on DOT1L [2], the “DOT1L degradation in MV411 cells” value is “degraded DOT1L in MV411 cells and in a dose dependent manner up to 10.0 μM”. In addition, at DOT1L [3], the “DOT1L degradation in EOL1 cells” value was “degraded DOT1L in EOL1 cells and in a dose dependent manner up to 2.5 μM”.

With `CC(C)N(CCCNC(=O)Nc1ccc(C(C)(C)C)cc1)C[C@H]1O[C@H](n2cnc3c(NCCCCNC(=O)CCCCCCCCCCCCCCCNc4cccc5c4C(=O)N(C4CCC(=O)NC4=O)C5=O)ncnc32)[C@H](O)[C@@H]1O` (stereo partly drawn) [Compound 6, N-(4-((9-((2S,3R,4S,5R)-5-(((3-(3-(4-(tert-butyl)phenyl)ureido)propyl)(isopropyl)amino)methyl)-3,4-dihydroxytetrahydrofuran-2-yl)-9H-purin-6-yl)amino)butyl)-16-((2-(2,6-dioxopiperidin-3-yl)-1,3-dioxoisoindolin-4-yl)amino)hexadecanamide], the “DOT1L binding via displacement” value at DOT1L [1] was “bound DOT1L via displacement of fluorescein isothiocyanate (FITC)-probe in FP assay”. Moreover, the “formation” value on DOT1L:CRBN was “induced the formation of ternary complexes between the DOT1L and CRBN”. In addition, the EOL1 cell viability entry in the assay with EOL1 cells is “reduced EOL1 cell viability in a dose dependent manner and at early time points”. In addition, the MV411 cell viability entry with MV411 cells was “reduced MV411 cell viability in a dose dependent manner and at early time points”. Also, in the assay with SEMK2 cells, the SEMK2 cell viability result is “reduced SEMK2 cell viability in a dose dependent manner and at early time points”. For the same compound, in the assay with THP1 cells, the THP1 cell viability entry was “reduced THP1 cell viability in a dose dependent manner and at early time points”. Also, the “DOT1L degradation in MV411 cells” value on DOT1L [2] is “degraded DOT1L in MV411 cells and in a dose dependent manner up to 5.0 μM”. Moreover, the “DOT1L degradation in EOL1 cells” value at DOT1L [3] was “degraded DOT1L in EOL1 cells and in a dose dependent manner up to 5.0 μM”.

For `CC(C)N(C[C@H]1O[C@@H](n2ccc3c(NCCCCNC(=O)CCCCCCCCCCCCCCCNc4cccc5c4C(=O)N(C4CCC(=O)NC4=O)C5=O)ncnc32)[C@H](O)[C@@H]1O)C1CC(CCc2nc3cc(C(C)(C)C)ccc3[nH]2)C1` (stereo partly drawn) [Compound 5, N-(4-((7-((2R,3R,4S,5R)-5-(((3-(2-(5-(tert-butyl)-1H-benzo[d]imidazol-2-yl)ethyl)cyclobutyl)(isopropyl)amino)methyl)-3,4-dihydroxytetrahydrofuran-2-yl)-7H-pyrrolo[2,3-d]pyrimidin-4-yl)amino)butyl)-16-((2-(2,6-dioxopiperidin-3-yl)-1,3-dioxoisoindolin-4-yl)amino)hexadecanamide], the EOL1 cell viability entry in the assay with EOL1 cells was “did not reduce EOL1 cell viability in a dose dependent manner and at early time points”.

Take `Cc1ncsc1-c1ccc(CNC(=O)[C@H]2C[C@H](O)CN2C(=O)[C@H](NC(=O)CCCCCCCNC(=O)CCCC(=O)NCCCCNc2ncnc3c2ncn3[C@@H]2O[C@H](CN(C(C)C)C3CC(CCc4nc5cc(C(C)(C)C)ccc5[nH]4)C3)[C@@H](O)[C@H]2O)C(C)(C)C)cc1` (stereo partly drawn) [Compound 4, N1-(4-((9-((2R,3R,4S,5R)-5-(((3-(2-(5-(tert-butyl)-1H-benzo[d]imidazol-2-yl)ethyl)cyclobutyl)(isopropyl)amino)methyl)-3,4-dihydroxytetrahydrofuran-2-yl)-9H-purin-6-yl)amino)butyl)-N5-(8-(((R)-1-((2R,4S)-4-hydroxy-2-((4-(4-methylthiazol-5-yl)benzyl)carbamoyl)pyrrolidin-1-yl)-3,3-dimethyl-1-oxobutan-2-yl)amino)-8-oxooctyl)glutaramide]: the EOL1 cell viability entry in the assay with EOL1 cells is given as “did not reduce EOL1 cell viability in a dose dependent manner”.

As to `CC(C)N(C[C@H]1O[C@@H](n2cnc3c(NCCCCNC(=O)CCCCCCCCCCCCCCCNc4cccc5c4C(=O)N(C4CCC(=O)NC4=O)C5=O)ncnc32)[C@H](O)[C@@H]1O)C1CC(CCc2nc3cc(C(C)(C)C)ccc3[nH]2)C1` (some centres unmarked) [Compound 3], at DOT1L [1], the “DOT1L binding via displacement” value is on record as “bound DOT1L via displacement of fluorescein isothiocyanate (FITC)-probe in FP assay”. The “formation” value at DOT1L:CRBN is “induced the formation of ternary complexes between the DOT1L and CRBN”. Besides, in the assay with EOL1 cells, the EOL1 cell viability entry was “reduced EOL1 cell viability in a dose dependent manner and at early time points”. Besides, the “DOT1L degradation in EOL1 cells” value at DOT1L [3] was “degraded DOT1L in EOL1 cells and in a dose dependent manner up to 5.0 μM”.

The values above are taken from patent publication US20240409574A1, “SMALL MOLECULES FOR DOT1L DEGRADATION AND USES THEREOF” (DANA-FARBER CANCER INSTITUTE, INC., priority 2021, published 2024).
